{"source": "patent US9533023B2", "about": "“EIF4E binding peptides” (Agency for Science, Technology and Research, priority 2010, dated 2017)", "key": {"[1]": {"tested_on": "endogenous c-myc in MCF-7 cells", "assay": "Western blot of endogenous c-myc", "assay_type": "cell-based", "settings": "15 μM peptide, 6 hours, vs PBS", "protocol": "MCF-7 cells were cultured in DMEM with 10% FCS. Three hundred fifty thousand MCF-7 cells were then seeded per well in 6-wells plates containing DMEM serum-free media overnight at 37° C. […] A mock PBS treatment was also included. Cells were harvested at 6 hrs and lysed in RIPA buffer. Protein concentration was determined using a Lowry Assay kit (Bio-rad). Samples were loaded at 30 ug and blotted against monoclonal antibody c-myc (Sigma Aldrich #M4439). B-actin was blotted for as a loading control."}, "eIF4E": {"target": "T1, eIF4E (Homo sapiens, UniProt P06730)", "T1 construct": "Full length human eIF4E was expressed and purified; made in house", "T1 sequence (P06730 whole entry)": "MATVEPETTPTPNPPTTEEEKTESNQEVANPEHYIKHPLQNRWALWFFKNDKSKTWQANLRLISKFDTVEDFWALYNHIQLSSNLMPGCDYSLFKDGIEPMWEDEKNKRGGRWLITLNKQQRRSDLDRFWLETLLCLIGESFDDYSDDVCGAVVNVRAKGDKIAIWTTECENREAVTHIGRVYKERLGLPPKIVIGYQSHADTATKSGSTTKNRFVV", "assay": "Fluorescence-based thermal stability (thermal shift) assay, FTS", "assay_type": "binding", "settings": "for eIF4E binding / Tm effect in FTS assay: 10 μM eIF4E, 100 μM peptide", "description": "Full length human eIF4E was expressed and purified as described in Brown, C.\nA fluorescence based thermal shift assay was used to screen and rank the rationally designed eIF4E binding derivative peptides. The fluorescent dye Sypro Red was used to monitor thermal denaturation of eIF4E. Binding of the dye molecule to eIF4E, as it unfolds due to thermal denaturation, results in a sharp increase in the fluorescence intensity. The midpoint of this transition is termed the Tm. The thermal shift assay was conducted in the iCycler Real Time Detection System (Bio-Rad, Hercules, Calif.). The system contains a heating/cooling device for accurate temperature control and a charge-coupled device (CCD) detector for simultaneous imaging of the fluorescence changes in the wells of the microplate. […] The final protein concentration was 10 μM. Protein samples were incubated with derivative peptides at a concentration of a 100 μM. The plate was heated from 20 to 90° C. with a heating rate of 1° C./min.\nwhere Ft is the fluorescence intensity at temperature T; Tm is the midpoint temperature of the protein-unfolding transition, Fpre and Fpost are the pretransitional and posttransitional fluorescence intensities, respectively, R is the gas constant, ΔHu is the enthalpy of protein unfolding, and ΔCpu is the heat capacity change on protein unfolding. In the absence of ligand, Tm=T0, ΔCpu=ΔC^T0pu, and ΔHu=ΔH^T0u.\nTo calculate the ligand-binding affinity at Tm for the derivative eIF4E binding peptides, Eq. (2) was used:\nTo compare binding affinities for the derivative peptides to eIF4E calculated from the thermal shift data, the binding affinity at temperature T (KL(T))) must be calculated. KL(T) can be calculated from KL(Tm) using Eq. (3A): […]\nwhere KL(T) is the ligand association constant at temperature T, and ΔHL(T) is the van't Hoff enthalpy of binding at temperature T. The value of ΔHL(T) was taken to be 5 kcal/mol."}, "[2]": {"tested_on": "MCF-7 5′UTR_MYC_Gaussia reporter cell line", "assay": "Cap-dependent translation cell-based assay (Gaussia luciferase)", "settings": "6 hours", "experimental": "To determine the efficacy of these peptides, a cell-based system to assay changes in cap-dependent translation was designed. […] A reporter line derived from the MCF-7 cell line that stably expresses the 5′UTR_MYC_Gaussia reporter was generated. The robustness of this model system was determined using rapamycin, which inhibits cap-dependent translation by inhibiting mTOR from phosphorylating 4EBPs.\nMCF-7 (5′UTR_MYC_Gaussia) cells were cultured in DMEM with 10% FCS. Twenty thousand cells were then seeded per well in 48-wells plates in DMEM serum-free media overnight at 37° C. […] Cells were then cultured in media containing 10% FCS with Rapamycin for 24 hrs and at concentrations of 100 nM, 10 nM, 1 nM, 0.1 nM. Gaussia-Luc activities in cells were measured using Gaussia Luciferase Assay Kit (NEB) with SpectraMax M5 (molecular Devices)."}, "MCF-7 cells": {"tested_on": "MCF-7 cells", "assay": "Annexin staining, flow cytometry", "assay_type": "cell-based", "settings": "30 μM, 48 hours", "protocol": "MCF-7 cells were cultured in DMEM with 10% FCS. Two hundred fifty thousand cells were then seeded per well in 6-wells plates containing DMEM serum-free media overnight at 37° C. […] A mock PBS treatment was also included. Cells were harvested, washed in PBS and spun down at 200 g for 5 mins. Cell pellets were resuspended in Annexin-VFLUOS labeling solution from Roche and incubated for 10-15 min at 15-25° C. Cells were then analyzed using LSR II (BD)."}, "[3]": {"tested_on": "MCF-7 (5′UTR_MYC_Gaussia) cells", "assay": "WST-1 assay (cell viability)", "assay_type": "cell-based", "settings": "30 μM, 48 hours after treatment", "protocol": "MCF-7 (5′UTR_MYC_Gaussia) cells were cultured in DMEM with 10% FCS. Twenty thousand cells were then seeded per well in 48-wells plates in DMEM serum-free media overnight at 37° C. Before overnight incubation, cells were incubated at room temperature for 30 mins. […] After 48 hrs of treatment, MCF-7 cells were incubated with Cell Proliferation Reagent WST-1(Roche) for 30 mins at 37° C. Absorbances of cell media were then read at 450 nm with SpectraMax M5."}, "[4]": {"tested_on": "MCF-7 (5′UTR_MYC_Gaussia) cells", "assay": "Propidium iodide staining and FACS analysis", "assay_type": "cell-based", "settings": "48 hrs", "protocol": "MCF-7 (5′UTR_MYC_Gaussia) cells were cultured in DMEM with 10% FCS. Two hundred fifty thousand cells were then seeded per well in 6-wells plates containing DMEM serum-free media overnight at 37° C. Before overnight incubation, cells were incubated at room temperature for 30 mins. […] A 1% DMSO and a PBS mock treatment was also carried out. Cells were harvested and fixed in 65% ethanol in PBS and incubated at 4° C. for 2 hrs. Cells were spun down and resuspended with Propidium iodide staining solution containing Rnase A. Cells were analyzed using LSR II (BD)."}}, "note": "Square brackets hold non-standard residues; d marks the D form. Ends that are not written are not given here. Ac5c = NC1(C(=O)O)CCCC1; Aib = CC(C)(N)C(=O)O"}
{"compound": "YGRKKRRQRRR [TAT, reference compound]", "values": [{"measurement": "endogenous c-myc expression", "setting": "[1]", "result": "identical"}, {"measurement": "eIF4E binding / Tm effect in FTS assay", "setting": "eIF4E", "result": "no binding"}, {"measurement": "inhibition of cap-dependent translation (luciferase output)", "setting": "[2]; TAT peptides, up to 100 μM", "result": "not inhibited by TAT alone with only a slight decrease at 100 μM"}, {"measurement": "annexin staining of cells (apoptosis)", "setting": "MCF-7 cells", "result": "few cells that could be stained"}]}
{"compound": "Tr2_AIB4: Tr2 peptide with Q633 replaced by Aib (YDREFLLGF[Aib]F)", "values": [{"measurement": "eIF4E binding / Tm effect in FTS assay", "setting": "eIF4E", "result": "severely attenuated peptide binding"}]}
{"compound": "Tr2_AIB2: Tr2 peptide with E627 replaced by Aib (YDR[Aib]FLLGFQF)", "values": [{"measurement": "eIF4E binding / Tm effect in FTS assay", "setting": "eIF4E", "result": "abolished measurable peptide binding"}]}
{"compound": "SEQ ID NO: 31: Tr2_AIB3_A5C with alanine at position 627 (YDRAFLL[Ac5c]FQF; not fully specified (C-terminus))", "values": [{"measurement": "eIF4E binding / Tm effect in FTS assay", "setting": "eIF4E", "result": "no significant increase or decrease in potency"}]}
{"compound": "Tr2_AIB3: Tr2 peptide with G631 replaced by Aib (YDREFLLXFQF; Aib at position 631; Tr2_AIB3)", "values": [{"measurement": "eIF4E binding / Tm effect in FTS assay", "setting": "eIF4E", "result": "increased the Tm"}]}
{"compound": "GT_eIF4G1: eIF4G1 14mer with N-terminal GT linker, no TAT (GTKKRYDREFLLGFQF; not fully specified (C-terminus))", "values": [{"measurement": "WST-1 assay, difference versus control peptide", "setting": "[3]", "result": "not significant"}, {"measurement": "luciferase activity, difference versus control peptide", "setting": "[2]; 30 μM", "result": "no significant difference"}]}
{"compound": "KRYDRE*LL5FQF [AC13]", "values": [{"measurement": "drop in thermal shift from AC14 to AC13", "setting": "eIF4E; difference vs AC14", "result": "~2.1", "unit": "°C"}, {"measurement": "inhibition of cap-dependent translation (luciferase output)", "setting": "[2]; non-TAT peptides, 400 μM", "result": "noticeable drop in activity"}]}
{"compound": "CC(C)C[C@H](NC(=O)[C@H](Cc1ccccc1)NC(=O)[C@H](CCC(=O)O)NC(=O)[C@H](CCCNC(=N)N)NC(=O)[C@H](CC(=O)O)NC(=O)[C@@H](N)Cc1ccc(O)cc1)C(=O)N[C@@H](CC(C)C)C(=O)NC1(C(=O)N[C@@H](Cc2ccccc2)C(=O)N[C@@H](CCC(N)=O)C(=O)N[C@@H](Cc2ccccc2)C(=O)O)CCCC1", "note": "[Tr2_AIB3_A5C, YDREFLL5FQF]", "values": [{"measurement": "eIF4E binding / Tm effect in FTS assay", "setting": "eIF4E", "result": "significantly increased"}]}
{"compound": "SEQ ID NO: 20: 11mer control peptide with the conserved tyrosine mutated to alanine (ADREFLLGFQF; Control) [reference compound]", "values": [{"measurement": "eIF4E binding / Tm effect in FTS assay", "setting": "eIF4E", "result": "all eIF4E binding is lost"}]}
{"compound": "GTKKRYDRE*LL5FQF [GT_eIF4G1_me5]", "values": [{"measurement": "cell cycle populations (sub G1, G1, S, G2), words", "setting": "[4]; non TAT peptides 400 μM, vs DMSO control", "result": "significant increase in the sub G1 population"}, {"measurement": "WST-1 assay, difference versus control peptide", "setting": "[3]", "result": "marginally significant"}, {"measurement": "inhibition of cap-dependent translation (luciferase output)", "setting": "[2]; 100 μM and 200 μM", "result": "some biological activity in a dose responsive manner"}, {"measurement": "inhibition of cap-dependent translation (luciferase output)", "setting": "[2]; non-TAT peptides, 400 μM", "result": "significant decrease in luciferase output"}]}
{"compound": "SEQ ID NO: 29: Tr2_AIB3_A5C with alanine at position 625 (YAREFLL[Ac5c]FQF; not fully specified (C-terminus))", "values": [{"measurement": "eIF4E binding / Tm effect in FTS assay", "setting": "eIF4E", "result": "no significant increase or decrease in potency"}]}
{"compound": "Tr2_AIB1: Tr2 peptide with D625 replaced by aminoisobutyric acid (Aib) (Y[Aib]REFLLGFQF)", "values": [{"measurement": "eIF4E binding / Tm effect in FTS assay", "setting": "eIF4E", "result": "severely attenuated peptide binding"}]}
{"compound": "TAT_eIF4G1_Cntrl: control peptide equivalent to TAT_eIF4G1 (YGRKKRRQRRRGTKKRADREFAAGFQF; TAT_eIF4G1_Cntrl)", "values": [{"measurement": "cell cycle populations (sub G1, G1, S, G2), words", "setting": "[4]; TAT fused peptides 30 μM, vs PBS mock", "result": "no substantive differences"}, {"measurement": "endogenous c-myc expression", "setting": "[1]", "result": "identical"}, {"measurement": "annexin staining of cells (apoptosis)", "setting": "MCF-7 cells", "result": "few cells that could be stained"}]}
